Data on two compounds can be found in paper PMC11241008, “Response Plasticity of Drosophila Olfactory Sensory Neurons” (International Journal of Molecular Sciences, 2024).

One assay addresses T1, Or56a (Drosophila melanogaster, UniProt Q9V8Y7).
T1 construct: native receptor in ab4B olfactory sensory neurons of excised open antenna, with endogenous Orco; GCaMP6f calcium reporter; no heterologous expression; with Odorant receptor coreceptor
T1 sequence (Q9V8Y7 1-419): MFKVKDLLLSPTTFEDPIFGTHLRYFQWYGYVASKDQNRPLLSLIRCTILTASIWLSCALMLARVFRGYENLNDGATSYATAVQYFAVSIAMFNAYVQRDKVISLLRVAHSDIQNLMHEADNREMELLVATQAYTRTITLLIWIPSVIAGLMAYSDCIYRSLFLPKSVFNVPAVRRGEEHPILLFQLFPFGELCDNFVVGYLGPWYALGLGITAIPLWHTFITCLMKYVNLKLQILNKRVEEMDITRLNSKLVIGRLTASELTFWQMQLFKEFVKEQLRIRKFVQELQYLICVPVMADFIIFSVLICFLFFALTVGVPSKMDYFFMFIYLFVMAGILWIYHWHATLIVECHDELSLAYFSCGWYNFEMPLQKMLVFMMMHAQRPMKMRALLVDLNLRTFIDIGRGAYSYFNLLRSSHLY
T1 sequence (Q9VNB5 1-486 partner): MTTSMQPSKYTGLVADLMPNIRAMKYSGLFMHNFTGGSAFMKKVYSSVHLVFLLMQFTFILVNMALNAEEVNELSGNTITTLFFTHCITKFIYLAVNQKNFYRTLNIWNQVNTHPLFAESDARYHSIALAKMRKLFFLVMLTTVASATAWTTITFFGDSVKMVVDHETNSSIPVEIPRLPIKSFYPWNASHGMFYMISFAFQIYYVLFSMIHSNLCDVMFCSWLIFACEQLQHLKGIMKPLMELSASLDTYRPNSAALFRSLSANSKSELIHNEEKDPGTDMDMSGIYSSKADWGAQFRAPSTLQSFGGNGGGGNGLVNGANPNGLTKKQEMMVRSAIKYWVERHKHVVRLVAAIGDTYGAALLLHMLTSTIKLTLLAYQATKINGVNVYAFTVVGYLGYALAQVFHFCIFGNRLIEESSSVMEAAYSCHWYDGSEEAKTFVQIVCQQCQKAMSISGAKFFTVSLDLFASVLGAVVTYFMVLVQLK
Put plainly: GCaMP6f calcium imaging of native OSN somata, open antenna. To be noted: agonist; Drosophila Ringer pH 7.3; Hill coefficient 0.6; concentration as applied; n = 9.

The next assay deals with T2, Or22a (Drosophila melanogaster, UniProt P81909).
T2 construct: native receptor in ab3A olfactory sensory neurons of excised open antenna, with endogenous Orco; GCaMP6f calcium reporter; no heterologous expression; with Odorant receptor coreceptor
T2 sequence (P81909 1-397): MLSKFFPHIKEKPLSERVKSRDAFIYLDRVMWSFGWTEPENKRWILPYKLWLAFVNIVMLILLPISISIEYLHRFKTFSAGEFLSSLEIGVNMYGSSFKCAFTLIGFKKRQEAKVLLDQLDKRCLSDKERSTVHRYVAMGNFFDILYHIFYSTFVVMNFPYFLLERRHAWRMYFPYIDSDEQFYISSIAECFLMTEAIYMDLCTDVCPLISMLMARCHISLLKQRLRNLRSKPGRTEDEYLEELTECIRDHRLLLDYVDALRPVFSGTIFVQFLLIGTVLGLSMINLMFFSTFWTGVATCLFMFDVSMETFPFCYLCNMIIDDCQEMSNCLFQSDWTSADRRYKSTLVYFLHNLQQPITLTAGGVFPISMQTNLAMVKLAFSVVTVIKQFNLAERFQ
T2 sequence (Q9VNB5 1-486 partner): T1 sequence (Q9VNB5 1-486 partner)
Described as above. To be noted: agonist; Drosophila Ringer pH 7.3; Hill coefficient 0.8; concentration as applied; n = 12.

Usually EC50 stands for the concentration at which the effect is half-maximal.

`CC1CCCC2(C)CCCCC12O` (racemic) [geosmin]: the EC50 at Or56a turned out to be 25 nM. For the compound `CCCCCC(=O)OCC` [ethyl hexanoate], the EC50 on Or22a is 1500 nM.
